Source: ChEMBL document CHEMBL1201862, “PubChem BioAssay data set” (2004)
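Step 1: Grow cells in 96-well plates. Step 2: Expose to compound for 48 hours at 5 concentrations. Step 3: Interpolate endpoints linearly; if unreached, use highest concentration. GI50 is the concentration that inhibits growth by half.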 Activity calls are given as the source filed them. Cut-off read from the data, not from the text of the source: active = GI50 up to about 1.1 µM and inactive = higher.

What was measured:
Assay in all cases: NCI-60 cell line screen, 48 h
NCI-H226 = system: NCI-H226
MOLT-4 = system: MOLT-4
HCC 2998 = system: HCC 2998
SR = system: SR
NCI/ADR-RES = system: NCI/ADR-RES
OVCAR-5 = system: OVCAR-5
SNB-75 = system: SNB-75
TK-10 = system: TK-10
MDA-MB-435 = system: MDA-MB-435
SW-620 = system: SW-620
OVCAR-4 = system: OVCAR-4
DU-145 = system: DU-145
MDA-MB-231 = system: MDA-MB-231
UO-31 = system: UO-31
MDA-N = system: MDA-N
COLO 205 = system: COLO 205
M14 = system: M14
HCT-15 = system: HCT-15
T47D = system: T47D
RPMI-8226 = system: RPMI-8226

Row | SMILES | GI50 (NCI-H226) | GI50 (MOLT-4) | GI50 (HCC 2998) | GI50 (SR) | GI50 (NCI/ADR-RES) | GI50 (OVCAR-5) | GI50 (SNB-75) | GI50 (TK-10) | GI50 (MDA-MB-435) | GI50 (SW-620) | GI50 (OVCAR-4) | GI50 (DU-145) | GI50 (MDA-MB-231) | GI50 (UO-31) | GI50 (MDA-N) | GI50 (COLO 205) | GI50 (M14) | GI50 (HCT-15) [µM] | GI50 (T47D) | GI50 (RPMI-8226)
1 | CCN(CC)CCCNc1[nH]c2ccccc2c2nc3ccc(OC)cc3c1-2 | 3.4 µM (inactive) | 0.279 µM (active) | 1.12 µM (inactive) | 0.274 µM (active) | 1.27 µM (inactive) | 1.28 µM (inactive) | 1.77 µM (inactive) | 2.31 µM (inactive) | 1.6 µM (inactive) | 0.828 µM (active) | 1.21 µM (inactive) | 2.64 µM (inactive) | 1.54 µM (inactive) | 4.01 µM (inactive) | 1.56 µM (inactive) | 1.32 µM (inactive) | 1.71 µM (inactive) | 1.21 | 10 µM (inactive) | 0.43 µM (active)
2 | O=P(c1ccccc1)(c1ccccc1)C(NCc1ccccc1)c1ccc(F)cc1 (centres undefined) | 16.2 µM (inactive) | 14.2 µM (inactive) | 16.1 µM (inactive) | 15 µM (inactive) | 14 µM (inactive) |  | 23.8 µM (inactive) | 15.9 µM (inactive) | 8.41 µM (inactive) | 18.5 µM (inactive) | 20.3 µM (inactive) | 20 µM (inactive) | 11.1 µM (inactive) | 12.8 µM (inactive) | 17.1 µM (inactive) | 14.7 µM (inactive) | 14.7 µM (inactive) | 13.2 | 26.5 µM (inactive) | 25.9 µM (inactive)
3 | COC(=O)c1c(O)ccc2c1C1(Cc3ccccc3C1=O)C(O)O2 (centres undefined) | 9.79 µM (inactive) | 5.04 µM (inactive) | 31.2 µM (inactive) | 4.49 µM (inactive) | 27.8 µM (inactive) | 17.5 µM (inactive) |  | 24.3 µM (inactive) | 13.4 µM (inactive) | 25.1 µM (inactive) | 16.2 µM (inactive) | 24.4 µM (inactive) | 17.3 µM (inactive) | 10.1 µM (inactive) | 13.7 µM (inactive) | 35.6 µM (inactive) | 17.3 µM (inactive) | 13.3 | 18.2 µM (inactive) | 2.88 µM (inactive)
4 | Nc1n[nH]c2c(C(=O)Nc3ccc(Cl)cc3)c(N)n(N)c(=O)c12 | > 100 µM (inactive) | > 100 µM (inactive) | > 100 µM (inactive) | > 100 µM (inactive) | > 100 µM (inactive) | > 100 µM (inactive) | > 100 µM (inactive) | > 100 µM (inactive) | > 100 µM (inactive) | > 100 µM (inactive) | > 100 µM (inactive) | > 100 µM (inactive) | > 100 µM (inactive) | > 100 µM (inactive) | > 100 µM (inactive) | > 100 µM (inactive) | > 100 µM (inactive) | > 100 | > 100 µM (inactive) | > 100 µM (inactive)
5 | Cn1cncc1CC1COC(=O)C1C(O)c1ccccc1 (centres undefined) | > 100 µM (inactive) | > 100 µM (inactive) | > 100 µM (inactive) | > 100 µM (inactive) | > 100 µM (inactive) | > 100 µM (inactive) | > 100 µM (inactive) | > 100 µM (inactive) | > 100 µM (inactive) | > 100 µM (inactive) | > 100 µM (inactive) | > 100 µM (inactive) | > 100 µM (inactive) |  | > 100 µM (inactive) | > 100 µM (inactive) | > 100 µM (inactive) | > 100 | > 100 µM (inactive) | > 100 µM (inactive)
6 | CC(=O)OCC1OC(Nc2ccc3nc(C)n(-c4ccccc4)c(=O)c3c2)C(OC(C)=O)C(OC(C)=O)C1OC(C)=O (centres undefined) | > 50 µM (inactive) | > 50 µM (inactive) | > 50 µM (inactive) | 24.1 µM (inactive) | > 50 µM (inactive) | > 50 µM (inactive) | > 50 µM (inactive) | > 50 µM (inactive) | > 50 µM (inactive) | > 50 µM (inactive) | > 50 µM (inactive) | > 50 µM (inactive) | > 50 µM (inactive) | > 50 µM (inactive) | > 50 µM (inactive) | > 50 µM (inactive) |  | > 50 | > 50 µM (inactive) | 5.61 µM (inactive)
7 | COCCCNC(=O)C1=C(C)NC(C)=C(C(=O)NCCCOC)C1 | > 100 µM (inactive) | > 100 µM (inactive) | > 100 µM (inactive) | > 100 µM (inactive) | > 100 µM (inactive) | > 100 µM (inactive) | 21 µM (inactive) | > 100 µM (inactive) | > 100 µM (inactive) | > 100 µM (inactive) | > 100 µM (inactive) | > 100 µM (inactive) | > 100 µM (inactive) | 71.4 µM (inactive) | > 100 µM (inactive) | > 100 µM (inactive) | > 100 µM (inactive) |  | > 100 µM (inactive) | > 100 µM (inactive)
8 | O=C1NC(N2CCCC(CO)C2)=N/C1=C\c1ccc(O)cc1 (centres undefined) | > 100 µM (inactive) | > 100 µM (inactive) | > 100 µM (inactive) | > 100 µM (inactive) | > 100 µM (inactive) | > 100 µM (inactive) | > 100 µM (inactive) | > 100 µM (inactive) | > 100 µM (inactive) | > 100 µM (inactive) | > 100 µM (inactive) | > 100 µM (inactive) | > 100 µM (inactive) | > 100 µM (inactive) | > 100 µM (inactive) | > 100 µM (inactive) | > 100 µM (inactive) | > 100 | 42 µM (inactive) | > 100 µM (inactive)
9 | COc1ccc(OC)c(NS(=O)(=O)c2ccc3nc(C)n(NS(=O)(=O)c4cc(OC)ccc4OC)c(=O)c3c2)c1 | > 100 µM (inactive) | 15.2 µM (inactive) | 38.6 µM (inactive) | 14.8 µM (inactive) | > 100 µM (inactive) | > 100 µM (inactive) | > 100 µM (inactive) | > 100 µM (inactive) | 14.3 µM (inactive) | 96.4 µM (inactive) | 93.3 µM (inactive) | > 100 µM (inactive) | > 100 µM (inactive) | 87.9 µM (inactive) | 41.7 µM (inactive) | > 100 µM (inactive) | > 100 µM (inactive) | > 100 | > 100 µM (inactive) | 20.8 µM (inactive)
10 | Cn1nc(-c2ccccc2)nc1[N+](=O)[O-] | > 10 µM (inactive) | > 10 µM (inactive) | > 10 µM (inactive) | > 10 µM (inactive) | > 10 µM (inactive) | > 10 µM (inactive) | > 10 µM (inactive) | > 10 µM (inactive) | > 10 µM (inactive) | > 10 µM (inactive) | > 10 µM (inactive) | > 10 µM (inactive) | > 10 µM (inactive) | > 10 µM (inactive) | > 10 µM (inactive) | > 10 µM (inactive) | > 10 µM (inactive) | > 10 | > 10 µM (inactive) | > 10 µM (inactive)
11 | N#Cc1c(-c2ccccc2)c2c([nH]c1=O)-c1cc([N+](=O)[O-])ccc1CCC2 | 27.1 µM (inactive) | 25 µM (inactive) | 20.7 µM (inactive) | 28.8 µM (inactive) | 22 µM (inactive) | 83.4 µM (inactive) | < 0.01 µM (active) | 44.4 µM (inactive) | 32.3 µM (inactive) | 36.7 µM (inactive) | 34 µM (inactive) | 25.5 µM (inactive) | 51.8 µM (inactive) | 41.4 µM (inactive) | 36.5 µM (inactive) | 26.9 µM (inactive) | 33.1 µM (inactive) | 20.9 | 19.3 µM (inactive) | 32.9 µM (inactive)
12 | OC1CN=C2c3ccccc3C(O)(c3ccc(Cl)cc3)N2C1 (centres undefined) | 83.4 µM (inactive) | 31 µM (inactive) | 17.1 µM (inactive) | 38.1 µM (inactive) | > 100 µM (inactive) | 27 µM (inactive) | 19.8 µM (inactive) | 20.2 µM (inactive) | 65.8 µM (inactive) | > 100 µM (inactive) | > 100 µM (inactive) | > 100 µM (inactive) | 57.8 µM (inactive) | 37.4 µM (inactive) | 35.4 µM (inactive) | 19.5 µM (inactive) | 14.8 µM (inactive) |  | > 100 µM (inactive) | 50.7 µM (inactive)
13 | BC(=O)NC(CC(C)C)C(=O)NC1c2ccsc2C(=O)C1O.CN(C)C (centres undefined) | > 100 µM (inactive) | > 100 µM (inactive) | > 100 µM (inactive) | > 100 µM (inactive) | > 100 µM (inactive) | > 100 µM (inactive) | > 100 µM (inactive) | > 100 µM (inactive) | > 100 µM (inactive) | > 100 µM (inactive) | > 100 µM (inactive) | > 100 µM (inactive) | > 100 µM (inactive) | > 100 µM (inactive) | > 100 µM (inactive) | > 100 µM (inactive) | > 100 µM (inactive) | > 100 | > 100 µM (inactive) | > 100 µM (inactive)
14 | COc1cc(OC)c(-c2cc(=O)c3c(OC)c(OC)c(OC)c(OC)c3o2)cc1OC | > 100 µM (inactive) | 22.2 µM (inactive) | > 100 µM (inactive) | > 28.3 µM (inactive) | 21.9 µM (inactive) | > 100 µM (inactive) | 14.9 µM (inactive) | 97.5 µM (inactive) | > 100 µM (inactive) | > 100 µM (inactive) | > 90.8 µM (inactive) | > 100 µM (inactive) | 19.8 µM (inactive) | 20.8 µM (inactive) | > 100 µM (inactive) | > 100 µM (inactive) | > 100 µM (inactive) | > 100 | 8.18 µM (inactive) | > 20.1 µM (inactive)
